The source made the active and inactive calls. The calls are words filed in the database; no cut-off is given here.
Columns and labels:
[1] = target: T1, Amine oxidase [flavin-containing] A (Homo sapiens, UniProt P21397); assay: Inhibition of human recombinant MAO-A
T1 sequence (P21397 whole entry): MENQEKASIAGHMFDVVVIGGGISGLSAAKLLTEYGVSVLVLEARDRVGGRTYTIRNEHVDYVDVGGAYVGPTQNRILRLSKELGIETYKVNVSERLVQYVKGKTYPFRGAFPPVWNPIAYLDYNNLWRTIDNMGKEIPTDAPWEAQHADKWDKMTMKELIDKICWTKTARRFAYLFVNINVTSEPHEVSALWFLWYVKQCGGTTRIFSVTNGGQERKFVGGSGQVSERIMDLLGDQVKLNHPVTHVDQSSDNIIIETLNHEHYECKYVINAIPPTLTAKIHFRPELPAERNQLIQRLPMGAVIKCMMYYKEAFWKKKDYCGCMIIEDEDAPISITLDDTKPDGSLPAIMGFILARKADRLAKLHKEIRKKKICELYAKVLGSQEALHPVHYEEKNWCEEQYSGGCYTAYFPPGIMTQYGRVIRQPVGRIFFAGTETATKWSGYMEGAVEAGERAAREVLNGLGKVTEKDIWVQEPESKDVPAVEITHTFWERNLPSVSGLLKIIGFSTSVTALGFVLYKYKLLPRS

[2] = target: T2, Amine oxidase [flavin-containing] B (Homo sapiens, UniProt P27338); assay: Inhibition of human recombinant MAO-B
T2 sequence (P27338 whole entry): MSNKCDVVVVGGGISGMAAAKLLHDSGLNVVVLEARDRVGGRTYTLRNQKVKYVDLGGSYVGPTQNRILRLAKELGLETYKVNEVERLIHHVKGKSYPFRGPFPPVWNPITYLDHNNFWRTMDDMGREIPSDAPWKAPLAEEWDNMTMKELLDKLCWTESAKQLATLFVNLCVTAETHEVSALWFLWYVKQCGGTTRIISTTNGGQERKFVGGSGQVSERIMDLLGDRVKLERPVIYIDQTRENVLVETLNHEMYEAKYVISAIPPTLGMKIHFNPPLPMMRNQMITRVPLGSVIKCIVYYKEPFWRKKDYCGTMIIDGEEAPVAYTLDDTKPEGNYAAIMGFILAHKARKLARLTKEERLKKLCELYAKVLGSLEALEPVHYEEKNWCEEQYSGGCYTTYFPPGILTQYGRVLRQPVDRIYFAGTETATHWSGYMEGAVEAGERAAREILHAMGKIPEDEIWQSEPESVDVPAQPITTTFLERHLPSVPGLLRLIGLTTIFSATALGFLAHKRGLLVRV

[3] = target: recombinant human DAO (diamine oxidase) (Homo sapiens, UniProt P19801); assay: Inhibition of human recombinant DAO
Mus musculus [4] = assay: Antiinflammatory activity against mouse air pouch model of carrageenan-induced oedema assessed as reduction in total inflammatory cell volume into air pouch at 0.6 to 6 mg/kg, po administered as single dose for 1 hr followed byb carrageenan administration; assay type: functional, organism-based; details: dose 0.6-6 mg/kg
[5] = target: T3, Amine oxidase [flavin-containing] B (Mus musculus, UniProt Q8BW75); assay: Inhibition of mouse muscle MAO-B; assay type: tissue-based, Muscle tissue
T3 sequence (Q8BW75 whole entry): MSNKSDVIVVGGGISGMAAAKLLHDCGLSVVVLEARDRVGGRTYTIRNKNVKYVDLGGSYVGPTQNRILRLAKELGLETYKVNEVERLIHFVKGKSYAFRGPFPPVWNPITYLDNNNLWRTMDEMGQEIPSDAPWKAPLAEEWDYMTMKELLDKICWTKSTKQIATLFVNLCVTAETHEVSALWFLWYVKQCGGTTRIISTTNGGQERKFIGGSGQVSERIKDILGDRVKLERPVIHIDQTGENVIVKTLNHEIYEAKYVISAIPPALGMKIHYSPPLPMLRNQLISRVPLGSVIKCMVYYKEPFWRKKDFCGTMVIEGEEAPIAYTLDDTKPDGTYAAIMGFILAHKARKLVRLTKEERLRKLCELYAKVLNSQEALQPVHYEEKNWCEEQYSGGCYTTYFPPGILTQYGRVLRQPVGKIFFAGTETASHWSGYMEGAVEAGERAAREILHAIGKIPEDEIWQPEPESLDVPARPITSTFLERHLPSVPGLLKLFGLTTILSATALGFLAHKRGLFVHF

Lysyl oxidase homolog 2 = target: T4, Lysyl oxidase homolog 2 (Homo sapiens, UniProt Q9Y4K0); assay: Inhibition of recombinant human LOXL-2
T4 sequence (Q9Y4K0 whole entry): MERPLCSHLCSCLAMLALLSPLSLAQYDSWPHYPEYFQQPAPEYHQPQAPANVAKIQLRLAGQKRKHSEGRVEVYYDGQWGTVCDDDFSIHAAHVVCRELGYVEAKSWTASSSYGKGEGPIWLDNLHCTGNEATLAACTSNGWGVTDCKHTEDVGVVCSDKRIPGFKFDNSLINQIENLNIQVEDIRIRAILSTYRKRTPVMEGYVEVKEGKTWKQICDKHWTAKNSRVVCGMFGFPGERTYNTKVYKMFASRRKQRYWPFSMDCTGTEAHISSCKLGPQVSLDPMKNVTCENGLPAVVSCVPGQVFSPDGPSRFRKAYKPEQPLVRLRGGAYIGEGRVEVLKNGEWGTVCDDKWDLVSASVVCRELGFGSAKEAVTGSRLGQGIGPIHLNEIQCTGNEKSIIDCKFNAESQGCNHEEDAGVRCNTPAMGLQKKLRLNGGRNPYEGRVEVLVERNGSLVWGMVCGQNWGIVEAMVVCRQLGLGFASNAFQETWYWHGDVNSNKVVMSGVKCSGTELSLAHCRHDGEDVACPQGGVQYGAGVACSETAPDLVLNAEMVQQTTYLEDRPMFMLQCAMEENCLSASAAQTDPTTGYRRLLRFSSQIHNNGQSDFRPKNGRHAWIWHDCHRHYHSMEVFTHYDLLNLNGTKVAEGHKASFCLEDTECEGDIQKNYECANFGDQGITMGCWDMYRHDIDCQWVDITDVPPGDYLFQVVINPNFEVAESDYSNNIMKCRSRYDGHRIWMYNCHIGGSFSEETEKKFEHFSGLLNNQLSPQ

Protein-lysine 6-oxidase = target: T5, Protein-lysine 6-oxidase (Bos taurus, UniProt P33072); assay: Inhibition of bovine aorta LOX; assay type: tissue-based
T5 sequence (P33072 whole entry): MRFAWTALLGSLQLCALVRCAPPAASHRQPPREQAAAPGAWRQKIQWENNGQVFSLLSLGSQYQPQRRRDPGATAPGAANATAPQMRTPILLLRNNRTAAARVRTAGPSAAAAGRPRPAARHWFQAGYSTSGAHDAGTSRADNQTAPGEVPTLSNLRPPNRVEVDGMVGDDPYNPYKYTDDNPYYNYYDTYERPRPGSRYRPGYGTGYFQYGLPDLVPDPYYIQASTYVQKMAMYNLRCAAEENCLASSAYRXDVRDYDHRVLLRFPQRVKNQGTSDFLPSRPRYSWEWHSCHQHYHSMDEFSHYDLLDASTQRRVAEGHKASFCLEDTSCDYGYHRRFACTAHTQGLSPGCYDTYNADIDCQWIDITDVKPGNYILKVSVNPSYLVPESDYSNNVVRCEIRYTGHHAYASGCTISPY

[6] = target: Lysine-specific histone demethylase 1A (Homo sapiens, UniProt O60341); assay: Inhibition of LSD1 (unknown origin)
[7] = Plasma protein binding in human; assay type: ADME, cell-free; details: read-out: PPB (converted)
[8] = Plasma protein binding in rat; assay type: ADME, cell-free; details: read-out: PPB (converted)
[9] = Plasma protein binding in dog; assay type: ADME, cell-free, Canis lupus familiaris; details: read-out: PPB (converted)
[10] = Stability in human microsomes measured after 1 hr; assay type: ADME, Microsome; details: read-out: Stability
[11] = Stability in rat microsomes measured after 1 hr; assay type: ADME, Microsome; details: read-out: Stability
[12] = Stability in dog microsomes measured after 1 hr; assay type: ADME, Canis lupus familiaris, Microsome; details: read-out: Stability
[13] = Stability in human hepatocytes assessed as parent compound remaining measured after 1 hr; assay type: ADME, cell-based, Hepatocyte; details: read-out: Stability
Cytochrome P450 1A2 = target: T6, Cytochrome P450 1A2 (Homo sapiens, UniProt P05177); assay: Inhibition of CYP1A2 (unknown origin); assay type: ADME
T6 sequence (P05177 whole entry): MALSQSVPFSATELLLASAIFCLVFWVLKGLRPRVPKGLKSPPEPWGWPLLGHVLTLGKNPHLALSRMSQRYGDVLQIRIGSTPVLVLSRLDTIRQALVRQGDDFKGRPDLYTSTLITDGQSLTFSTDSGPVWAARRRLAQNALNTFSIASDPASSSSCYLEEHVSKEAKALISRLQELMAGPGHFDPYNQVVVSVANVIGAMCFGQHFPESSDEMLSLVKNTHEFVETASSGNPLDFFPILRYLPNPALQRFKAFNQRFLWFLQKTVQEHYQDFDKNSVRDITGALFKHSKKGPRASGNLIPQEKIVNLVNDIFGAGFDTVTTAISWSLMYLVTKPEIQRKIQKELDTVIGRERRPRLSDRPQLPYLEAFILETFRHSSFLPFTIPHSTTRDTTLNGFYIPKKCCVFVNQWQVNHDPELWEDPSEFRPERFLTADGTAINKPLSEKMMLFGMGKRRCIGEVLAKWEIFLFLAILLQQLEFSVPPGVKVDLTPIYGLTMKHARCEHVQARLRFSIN

Cytochrome P450 2C9 = Cytochrome P450 2C9 (Homo sapiens, UniProt P11712); assay: Inhibition of CYP2C9 (unknown origin); assay type: ADME
Sequence of Cytochrome P450 2C9 (P11712 whole entry): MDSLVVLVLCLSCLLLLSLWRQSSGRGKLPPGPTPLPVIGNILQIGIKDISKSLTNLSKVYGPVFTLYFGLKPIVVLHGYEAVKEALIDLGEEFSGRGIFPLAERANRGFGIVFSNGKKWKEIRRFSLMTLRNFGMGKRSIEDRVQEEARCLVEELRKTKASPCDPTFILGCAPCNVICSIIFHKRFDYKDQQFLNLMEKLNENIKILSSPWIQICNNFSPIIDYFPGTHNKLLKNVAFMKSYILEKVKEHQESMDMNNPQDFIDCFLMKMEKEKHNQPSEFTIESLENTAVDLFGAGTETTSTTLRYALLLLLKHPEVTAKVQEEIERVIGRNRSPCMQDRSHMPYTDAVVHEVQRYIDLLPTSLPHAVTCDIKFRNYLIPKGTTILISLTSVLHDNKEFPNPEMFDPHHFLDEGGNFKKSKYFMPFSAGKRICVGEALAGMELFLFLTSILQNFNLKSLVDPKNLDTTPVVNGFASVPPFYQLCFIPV

Cytochrome P450 2C19 = Cytochrome P450 2C19 (Homo sapiens, UniProt P33261); assay: Inhibition of CYP2C19 (unknown origin)
Sequence of Cytochrome P450 2C19 (P33261 whole entry): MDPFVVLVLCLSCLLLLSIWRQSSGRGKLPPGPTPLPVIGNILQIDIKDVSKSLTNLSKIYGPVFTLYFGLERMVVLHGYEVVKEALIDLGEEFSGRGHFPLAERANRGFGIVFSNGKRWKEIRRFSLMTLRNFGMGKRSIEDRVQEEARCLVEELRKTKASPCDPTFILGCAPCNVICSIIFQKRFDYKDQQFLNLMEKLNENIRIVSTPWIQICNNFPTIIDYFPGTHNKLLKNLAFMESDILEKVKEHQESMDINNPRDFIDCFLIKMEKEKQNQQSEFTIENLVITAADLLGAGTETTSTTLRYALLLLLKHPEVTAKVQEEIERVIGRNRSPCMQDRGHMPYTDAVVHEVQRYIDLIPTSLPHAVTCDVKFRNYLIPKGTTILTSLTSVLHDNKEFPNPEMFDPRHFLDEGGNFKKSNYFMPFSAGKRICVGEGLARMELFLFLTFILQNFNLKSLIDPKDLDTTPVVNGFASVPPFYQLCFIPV

Cytochrome P450 2D6 = Cytochrome P450 2D6 (Homo sapiens, UniProt P10635); assay: Inhibition of CYP2D6 (unknown origin); assay type: ADME
Sequence of Cytochrome P450 2D6 (P10635 whole entry): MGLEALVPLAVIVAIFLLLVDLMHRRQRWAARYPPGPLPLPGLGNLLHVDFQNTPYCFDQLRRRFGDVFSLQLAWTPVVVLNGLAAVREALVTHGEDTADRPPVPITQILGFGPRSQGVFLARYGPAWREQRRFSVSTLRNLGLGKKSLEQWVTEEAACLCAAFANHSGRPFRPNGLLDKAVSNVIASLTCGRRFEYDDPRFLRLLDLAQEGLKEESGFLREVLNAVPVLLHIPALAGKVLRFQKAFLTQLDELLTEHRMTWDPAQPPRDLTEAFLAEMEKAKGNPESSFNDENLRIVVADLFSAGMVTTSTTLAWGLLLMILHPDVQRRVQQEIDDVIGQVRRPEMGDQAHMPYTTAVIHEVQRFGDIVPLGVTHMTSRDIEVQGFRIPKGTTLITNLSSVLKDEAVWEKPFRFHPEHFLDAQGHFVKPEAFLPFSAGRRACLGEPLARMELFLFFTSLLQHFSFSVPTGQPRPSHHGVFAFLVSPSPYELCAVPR

Cytochrome P450 3A4 = Cytochrome P450 3A4 (Homo sapiens, UniProt P08684); assay: Inhibition of CYP3A4 (unknown origin); assay type: ADME
Sequence of Cytochrome P450 3A4 (P08684 whole entry): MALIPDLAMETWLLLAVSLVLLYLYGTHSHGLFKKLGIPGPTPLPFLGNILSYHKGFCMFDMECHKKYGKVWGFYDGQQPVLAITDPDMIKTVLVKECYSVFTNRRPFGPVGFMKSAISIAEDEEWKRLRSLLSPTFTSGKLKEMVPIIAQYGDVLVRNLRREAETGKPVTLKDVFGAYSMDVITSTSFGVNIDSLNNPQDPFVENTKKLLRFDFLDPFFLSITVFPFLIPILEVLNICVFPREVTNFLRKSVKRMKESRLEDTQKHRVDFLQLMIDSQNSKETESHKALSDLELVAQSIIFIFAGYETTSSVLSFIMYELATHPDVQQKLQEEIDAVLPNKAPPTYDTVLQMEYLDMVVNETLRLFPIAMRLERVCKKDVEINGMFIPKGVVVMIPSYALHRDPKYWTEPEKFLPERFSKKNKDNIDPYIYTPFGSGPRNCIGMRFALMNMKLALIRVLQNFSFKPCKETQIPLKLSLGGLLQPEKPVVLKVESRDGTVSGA

[14] = Tmax in Wistar rat at 3 mg/kg, po; assay type: ADME, organism-based; details: in vivo
[15] = Cmax in Wistar rat at 3 mg/kg, po; assay type: ADME, organism-based; parameters: dose 3 mg/kg, route po; details: in vivo
[16] = AUC (0 to infinity) in Wistar rat at 3 mg/kg, po; assay type: ADME, organism-based; parameters: time infinity, dose 3 mg/kg, route po; details: in vivo
Rattus norvegicus [17] = assay: In vivo inhibition of MOA-B in Wistar rat brain at 0.6 mg/kg, po administered as single dose and measured upto 48 hrs; assay type: functional, organism-based
Rattus norvegicus [18] = assay: In vivo inhibition of SSAO in Wistar rat adipose tissue at 0.6 mg/kg, po administered as single dose and measured upto 48 hrs; assay type: functional, organism-based
Rattus norvegicus [19] = assay: In vivo inhibition of MOA-A in Wistar rat brain at 3 mg/kg, po administered as single dose and measured upto 48 hrs; assay type: functional, organism-based
Mus musculus [20] = assay: Antiinflammatory activity against mouse air pouch model of carrageenan-induced oedema assessed as reduction in neutrophil number in infiltrate at 0.6 mg/kg, po administered as single dose for 1 hr followed byb carrageenan administration; assay type: functional, organism-based
Mus musculus [21] = assay: Antineuroinflammatory activity in PLP-induced autoimmune encephalomyelitis mouse model assessed as reduction in AUC of clinical score at 0.6 to 6 mg/kg/day, po administered once daily via oral gavage starting from day 13 post PLP sensibilization and measured on day 30; assay type: functional, organism-based; details: dose 0.6-6 mg/kg/day, time 17.0 day
[22] = Permeability in MDCK-MDR1 cells; assay type: ADME, cell-based, Canis lupus familiaris; details: dog
[23] = Inhibition of calcium channel (unknown origin) at 10 uM; assay type: toxicity; details: human
[24] = Inhibition of sodium channel (unknown origin) at 10 uM; assay type: toxicity; details: human
[25] = Inhibition of potassium channel (unknown origin) at 10 uM; assay type: toxicity; details: human

Structure (SMILES): NC/C(=C/F)[C@@H]1Cc2ccccc2O1
- IC50 [1]: 0.1 µM

Structure (SMILES): NC/C(=C/F)CCc1ccc(F)cc1 [MOFEGILINE]
- IC50 [2]: 0.002 µM
- IC50 [1]: 0.75 µM
- IC50 [3]: > 30 µM

Structure (SMILES): NCC(=CF)COc1ccccc1 (mixture of isomers)
- IC50 [2]: 0.009 µM
- IC50 [1]: 2.5 µM
- IC50 [3]: 1.6 µM

Structure (SMILES): NC/C(=C/F)[C@H]1Cc2ccccc2O1
- IC50 [1]: 6.8 µM
- IC50 [3]: > 30 µM

Structure (SMILES): Cl.NC/C(=C\F)[C@H]1Cc2ccccc2O1
- Activity (Mus musculus [4]): Active
- IC50 [1]: 2.4 µM
- IC50 [3]: > 30 µM
- IC50 [5]: 0.0004 µM
- IC50 (Lysyl oxidase homolog 2): > 30 µM
- IC50 (Protein-lysine 6-oxidase): > 30 µM
- IC50 [6]: > 30 µM
- fraction unbound [7]: 0.24
- fraction unbound [8]: 0.51
- fraction unbound [9]: 0.42
- remaining at 1 h [10]: 84%
- remaining at 1 h [11]: 67%
- remaining at 1 h [12]: 92%
- remaining at 1 h [13]: > 95%
- IC50 (Cytochrome P450 1A2): > 10 µM
- IC50 (Cytochrome P450 2C9): > 10 µM
- IC50 (Cytochrome P450 2C19): > 10 µM
- IC50 (Cytochrome P450 2D6): > 10 µM
- IC50 (Cytochrome P450 3A4): > 10 µM
- Tmax [14]: 20 min
- Cmax [15]: 199 ng/mL
- AUC(0-inf) [16]: 265 ng·h/mL
- inhibition (Rattus norvegicus [17]): Active
- inhibition (Rattus norvegicus [18]): Active
- inhibition (Rattus norvegicus [19]): Active
- Activity (Mus musculus [20]): Active
- Activity (Mus musculus [21]): Active

Structure (SMILES): NC/C(=C\F)COc1ccccc1
- IC50 [2]: 0.013 µM
- IC50 [1]: 4 µM
- IC50 [3]: > 30 µM

Structure (SMILES): Cl.NC/C(=C\F)[C@@H]1Cc2ccccc2O1
- IC50 [1]: 0.75 µM
- IC50 [3]: > 30 µM
- permeability [22]: Permeable

Structure (SMILES): Cc1ccccc1OC/C(=C/F)CN
- IC50 [2]: 0.003 µM
- IC50 [1]: 0.16 µM
- IC50 [3]: > 30 µM

Structure (SMILES): NCC(=CF)COc1ccc(F)cc1 (mixture of isomers)
- IC50 [2]: 0.004 µM
- IC50 [1]: 14 µM
- IC50 [3]: 0.78 µM

Structure (SMILES): Cl.NCC(=CF)C1Cc2ccccc2O1 (mixture of isomers)
- IC50 [1]: 0.46 µM
- IC50 [3]: > 30 µM
- inhibition (INH) [23]: Active
- inhibition (INH) [24]: Active
- inhibition (INH) [25]: Active
